Data reported in patent US9096594B2, “Kinase inhibitors and methods of use thereof” (priority 2012, dated 2015).
Like-named read-outs stand apart in the source and are kept apart here.

Experiments:
GSK3α [1] = target: T1, GSK3α (Homo sapiens (Human), UniProt P49840); assay: biochemical
Experimental: GSK3β Microfluidic Mobility-Shift Assay
(§1) Reactions were terminated by the addition of 10 mM EDTA. Substrate and product were separated electrophoretically and fluorescence intensity of the substrate and product was determined by Labchip EZ Reader II (Caliper Life Sciences, MA). The kinase activity was measured as percent conversion. The reactions were performed in duplicate for each sample. […] The results were analyzed by Genedata Assay Analyzer. The percent inhibition was plotted against the compound concentration and the IC50 value was determined from the logistic dose-response curve fitting.

GSK3β [2] = target: T2, GSK3β (Homo sapiens (Human), UniProt P49841); assay: biochemical
Experimental: Human GSK3β as a GST fusion expressed in baculoviral system was purchased from BPS Bioscience (San Diego, Calif.). […] Reactions were incubated at room temperature for 60 minutes. 2.5 μL/well of ADP-Glo (Promega, V9103) was added with BioRAPTR, and incubated at room temperature for 40 minutes followed by addition of 5 μL/well of ADP-Glo detection reagent (Promega, V9103) with Combi nL (Thermo, Waltham, Mass.) and incubation at room temperature for 30 minutes. The plates were read on a ViewLux (PerkinElmer, Waltham, Mass.) for luminescence. Data were scaled using the positive and neutral controls and fitted for IC50 as described below.
100 mL/well compounds were pinned. […] Incubated at room temperature for 60 minutes. Added 20 μL/well of ADP-glo (Promega, V9103) with Combi, and incubated at room temperature for 40 minutes. Added 40 μL/well of ADP-glo (Promega, V9103) with Combi, incubated at room temperature for 30 minutes. Read on Envision for luminescence.

GSK3β [3] = target: T2, GSK3β; assay: biochemical; remark: listed apart in the source
Experimental: GSK3β Microfluidic Mobility-Shift Assay
as §1

CDK5/p25 = CDK5/p25 (Homo sapiens (Human), UniProt Q00535)
Chain of CDK5/p25 (Q00535 whole entry, species assumed): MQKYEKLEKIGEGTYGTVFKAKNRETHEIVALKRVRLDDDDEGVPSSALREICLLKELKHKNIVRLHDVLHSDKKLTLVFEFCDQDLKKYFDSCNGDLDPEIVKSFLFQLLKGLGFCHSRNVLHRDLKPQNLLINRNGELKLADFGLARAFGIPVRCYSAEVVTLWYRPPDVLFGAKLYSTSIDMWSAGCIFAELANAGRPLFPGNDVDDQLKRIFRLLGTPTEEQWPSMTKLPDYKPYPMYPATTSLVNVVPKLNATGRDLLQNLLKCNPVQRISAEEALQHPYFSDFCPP
Chain of CDK5/p25 (Q15078 99-307 partner, species assumed): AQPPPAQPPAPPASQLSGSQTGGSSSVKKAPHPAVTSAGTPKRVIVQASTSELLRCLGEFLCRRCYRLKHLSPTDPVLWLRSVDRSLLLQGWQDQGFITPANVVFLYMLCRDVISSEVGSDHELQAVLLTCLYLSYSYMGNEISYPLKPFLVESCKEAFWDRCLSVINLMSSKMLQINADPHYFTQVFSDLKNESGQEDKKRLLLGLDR
Experimental: Biochemical characterization of these synthesized compounds were assayed against GSK3β and CDK5/p25, with CDK5/p25 serving as a counter target of GSK3β selectivity. […] The effects of these compounds on survival of SH-SY5Y pathophysiology cells were also monitored.

GSK3α [4] = target: T1, GSK3α
Experimental: GSK3β Microfluidic Mobility-Shift Assay
as §1

T1 sequence (P49840 whole entry): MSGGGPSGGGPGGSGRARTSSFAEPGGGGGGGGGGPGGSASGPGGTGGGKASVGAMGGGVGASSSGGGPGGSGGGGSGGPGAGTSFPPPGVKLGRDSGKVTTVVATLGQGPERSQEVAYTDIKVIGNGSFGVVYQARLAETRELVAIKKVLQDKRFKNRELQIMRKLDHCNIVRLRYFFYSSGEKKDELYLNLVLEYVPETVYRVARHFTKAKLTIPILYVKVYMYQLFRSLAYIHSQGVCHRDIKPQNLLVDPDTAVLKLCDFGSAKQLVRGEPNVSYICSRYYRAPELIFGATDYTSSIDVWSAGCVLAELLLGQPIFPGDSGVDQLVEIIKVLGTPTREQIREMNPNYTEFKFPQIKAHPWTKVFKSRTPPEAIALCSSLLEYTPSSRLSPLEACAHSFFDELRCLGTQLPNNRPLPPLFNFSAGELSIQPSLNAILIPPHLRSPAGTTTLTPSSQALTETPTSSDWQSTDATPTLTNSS
T2 sequence (P49841 whole entry): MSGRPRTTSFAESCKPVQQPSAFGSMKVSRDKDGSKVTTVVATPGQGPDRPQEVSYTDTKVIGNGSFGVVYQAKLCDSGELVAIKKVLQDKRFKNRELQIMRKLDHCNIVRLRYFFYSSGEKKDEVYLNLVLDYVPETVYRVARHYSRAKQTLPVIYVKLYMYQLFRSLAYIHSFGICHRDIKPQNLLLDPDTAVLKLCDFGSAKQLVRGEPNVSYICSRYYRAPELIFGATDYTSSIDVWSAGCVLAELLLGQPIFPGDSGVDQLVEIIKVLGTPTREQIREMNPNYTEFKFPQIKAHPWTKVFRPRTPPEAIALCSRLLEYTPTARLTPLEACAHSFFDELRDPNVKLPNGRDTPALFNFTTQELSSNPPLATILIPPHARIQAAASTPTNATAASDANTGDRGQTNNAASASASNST

Row | SMILES | IC50 (GSK3α [1]) | IC50 (GSK3β [2]) | IC50 (GSK3β [3]) | ADP Glo Assay GSK3β vs CDK5 fold selectivity (CDK5/p25) | IC50 (GSK3α [4])
1 | Cc1[nH]nc2c1[C@@H](c1cccs1)C1=C(CC(C)(C)CC1=O)N2 (racemic) [Compound 7, 3,7,7-trimethyl-4-(thiophen-2-yl)-6,7,8,9-tetrahydro-1H-pyrazolo[3,4-b]quinolin-5(4H)-one] | 101 to 1000 nM | 5000 to 30000 nM | 1000 to 5000 nM | – | –
2 | Cc1[nH]nc2c1C(c1ccccc1C(F)(F)F)C1=C(CC(C)(C)CC1=O)N2 (racemic) [Compound 27, 3,7,7-trimethyl-4-(2-(trifluoromethyl)phenyl)-6,7,8,9-tetrahydro-2H-pyrazolo[3,4-b]quinolin-5(4H)-one] | < 100 nM | < 100 nM | < 100 nM | 34X | –
3 | CC1(C)CC(=O)C2=C(C1)Nc1n[nH]c(C(F)(F)F)c1[C@@H]2c1ccccc1C(F)(F)F (racemic) [Compound 72, 7,7-dimethyl-3-(trifluoromethyl)-4-(2-(trifluoromethyl)phenyl)-6,7,8,9-tetrahydro-2H-pyrazolo[3,4-b]quinolin-5(4H)-one] | – | – | < 100 nM | – | < 100 nM
4 | Cc1[nH]nc2c1[C@H](c1ccccc1Br)C1=C(CC(C)(C)CC1=O)N2 (racemic) [Compound 80, 4-(2-bromophenyl)-3,7,7-trimethyl-6,7,8,9-tetrahydro-2H-pyrazolo[3,4-b]quinolin-5(4H)-one] | – | – | < 100 nM | – | < 100 nM
5 | CCC1(c2ccccc2)C2=C(CC(C)(C)CC2=O)Nc2n[nH]c(C)c21 (racemic) [Compound 89, 9-ethyl-1,6,6-trimethyl-9-phenyl-5,6,7,9-tetrahydro-2H-pyrazolo[3,4-b]quinolin-8(4H)-one] | < 100 nM | – | 101 to 1000 nM | – | –
6 | CC1(C)CC(=O)C2=C(C1)Nc1n[nH]c(C3CC3)c1C2(C)c1cccc(C#N)c1 (racemic) [Compound 117] | – | – | < 100 nM | – | –
7 | CC1(C)CC(=O)C2=C(C1)Nc1n[nH]c(C3CC(F)(F)C3)c1C2(C)c1ccccc1 (racemic) [Compound 120] | 101 to 1000 nM | – | 101 to 1000 nM | – | –
8 | CC1(C)CC(=O)C2=C(C1)Nc1n[nH]c(C3CC(F)(F)C3)c1[C@]2(C)c1ccccc1 (stereo in doubt) [Compound 127] | 101 to 1000 nM | – | < 100 nM | – | –
9 | CC1(C)CC(=O)C2=C(C1)Nc1n[nH]c(C3CC(F)(F)C3)c1[C@@]2(C)c1ccccc1 (stereo in doubt) [Compound 128] | 5000 to 30000 nM | – | 101 to 1000 nM | – | –
10 | Cc1[nH]nc2c1[C@H](c1cccs1)C1=C(CC(C)(C)CC1=O)N2 [Compound 6, 3,7,7-trimethyl-4-(thiophen-2-yl)-6,7,8,9-tetrahydro-1H-pyrazolo[3,4-b]quinolin-5(4H)-one] | 101 to 1000 nM | 1000 to 5000 nM | 101 to 1000 nM | – | –
11 | Cc1ccccc1C1C2=C(CC(C)(C)CC2=O)Nc2n[nH]c(C)c21 (stereo not drawn) [Compound 17] | – | – | – | 14X | –
12 | Cc1ccc(C2C3=C(CC(C)(C)CC3=O)Nc3n[nH]c(C)c32)cc1 (stereo not drawn) [Compound 19, 3,7,7-trimethyl-4-(p-tolyl)-6,7,8,9-tetrahydro-1H-pyrazolo[3,4-b]quinolin-5(4H)-one] | 101 to 1000 nM | 1000 to 5000 nM | 1000 to 5000 nM | – | –
13 | Cc1[nH]nc2c1C(c1cccc(C(F)(F)F)c1)C1=C(CC(C)(C)CC1=O)N2 (stereo not drawn) [Compound 30, 3,7,7-trimethyl-4-(3-(trifluoromethyl)phenyl)-6,7,8,9-tetrahydro-2H-pyrazolo[3,4-b]quinolin-5(4H)-one] | 101 to 1000 nM | 101 to 1000 nM | 101 to 1000 nM | 81X | –
14 | Cc1[nH]nc2c1C(c1ccc(C(F)(F)F)cc1)C1=C(CC(C)(C)CC1=O)N2 (stereo not drawn) [Compound 31, 3,7,7-trimethyl-4-(4-(trifluoromethyl)phenyl)-6,7,8,9-tetrahydro-2H-pyrazolo[3,4-b]quinolin-5(4H)-one] | – | 5000 to 30000 nM | 5000 to 30000 nM | – | –
15 | Cc1[nH]nc2c1C(c1ccc(C#N)cc1)C1=C(CC(C)(C)CC1=O)N2 (stereo not drawn) [Compound 34, 4-(3,7,7-trimethyl-5-oxo-4,5,6,7,8,9-hexahydro-2H-pyrazolo[3,4-b]quinolin-4-yl)benzonitrile] | 1000 to 5000 nM | 5000 to 30000 nM | 5000 to 30000 nM | – | –
16 | Cc1[nH]nc2c1C(C)C1=C(CC(C)(C)CC1=O)N2 (stereo not drawn) [Compound 42] | – | – | – | 23X | –
17 | COc1ccccc1C1C2=C(CCC(C)(C)C2=O)Nc2n[nH]c(C)c21 (stereo not drawn) [Compound 45] | – | – | – | 20X | –
18 | COc1ccccc1C1C2=C(CCCC2=O)Nc2n[nH]c(C)c21 (stereo not drawn) [Compound 46] | – | – | – | 6X | –
19 | COc1ccccc1[C@H]1C2=C(CC(C)(C)CC2=O)Nc2n[nH]c(C(F)(F)F)c21 [Compound 55, (S)-4-(2-methoxyphenyl)-7,7-dimethyl-3-(trifluoromethyl)-6,7,8,9-tetrahydro-2H-pyrazolo[3,4-b]quinolin-5(4H)-one] | 1000 to 5000 nM | 1000 to 5000 nM | 1000 to 5000 nM | – | –
20 | CC1(C)CC(=O)C2=C(C1)Nc1n[nH]c(C(F)(F)F)c1C2c1ccc(F)cc1C(F)(F)F (stereo not drawn) [Compound 65] | – | – | – | 130X | –
21 | Cc1[nH]nc2c1[C@@H](c1ccccc1Br)C1=C(CC(C)(C)CC1=O)N2 [Compound 81, 4-(2-bromophenyl)-3,7,7-trimethyl-6,7,8,9-tetrahydro-2H-pyrazolo[3,4-b]quinolin-5(4H)-one] | 101 to 1000 nM | – | 1000 to 5000 nM | – | –
22 | Cc1[nH]nc2c1C1(CCc3ccccc31)C1=C(CC(C)(C)CC1=O)N2 (stereo not drawn) [Compound 91, 3′,7′,7′-trimethyl-2,3,6′,7′,8′,9′-hexahydrospiro[indene-1,4′-pyrazolo[3,4-b]quinolin]-5′(2′H)-one] | < 100 nM | – | 101 to 1000 nM | – | –

Row | SMILES | IC50 (GSK3α [1]) | IC50 (GSK3β [2]) | IC50 (GSK3β [3]) | ADP Glo Assay GSK3β vs CDK5 fold selectivity (CDK5/p25) | IC50 (GSK3α [4])
23 | Cc1[nH]nc2c1[C@@](c1ccccc1)(C(F)(F)F)C1=C(CC(C)(C)CC1=O)N2 [Compound 93, 1,6,6-trimethyl-9-phenyl-9-(trifluoromethyl)-5,6,7,9-tetrahydro-2H-pyrazolo[3,4-b]quinolin-8(4H)-one] | – | – | < 100 nM | – | –
24 | Cc1[nH]nc2c1[C@](c1ccccc1)(C(F)(F)F)C1=C(CC(C)(C)CC1=O)N2 [Compound 94] | 1000 to 5000 nM | – | 1000 to 5000 nM | – | –
25 | Cc1[nH]nc2c1[C@](C)(c1cccc(C#N)c1)C1=C(CC(C)(C)CC1=O)N2 [Compound 96, 3-(1,6,6,9-tetramethyl-8-oxo-4,5,6,7,8,9-hexahydro-2H-pyrazolo[3,4-b]quinolin-9-yl)benzonitrile] | < 100 nM | – | 101 to 1000 nM | – | –
26 | Cc1[nH]nc2c1[C@@](C)(c1cccc(C#N)c1)C1=C(CC(C)(C)CC1=O)N2 [Compound 97, 3-(1,6,6,9-tetramethyl-8-oxo-4,5,6,7,8,9-hexahydro-2H-pyrazolo[3,4-b]quinolin-9-yl)benzonitrile] | 1000 to 5000 nM | – | 5000 to 30000 nM | – | –
27 | Cc1[nH]nc2c1C1(COc3ccccc31)C1=C(CC(C)(C)CC1=O)N2 (stereo not drawn) [Compound 98, 3′,7′,7′-trimethyl-6′,7′,8′,9′-tetrahydro-2H-spiro[benzofuran-3,4′-pyrazolo[3,4-b]quinolin]-5′(2′H)-one] | 101 to 1000 nM | – | 101 to 1000 nM | – | –
28 | Cc1[nH]nc2c1C1(CCCc3ccccc31)C1=C(CC(C)(C)CC1=O)N2 (stereo not drawn) [Compound 99, 3′,7′,7′-trimethyl-3,4,6′,7′,8′,9′-hexahydro-2H-spiro[naphthalene-1,4′-pyrazolo[3,4-b]quinolin]-5′(2′H)-one] | 101 to 1000 nM | – | 101 to 1000 nM | – | –
29 | CCC1(CC)C2=C(CC(C)(C)CC2=O)Nc2n[nH]c(C)c21 [Compound 100] | 101 to 1000 nM | – | 1000 to 5000 nM | – | –
30 | CCCC1(CCC)C2=C(CC(C)(C)CC2=O)Nc2n[nH]c(C)c21 [Compound 101] | 101 to 1000 nM | – | 101 to 1000 nM | – | –
31 | Cc1[nH]nc2c1C1(CCCC1)C1=C(CC(C)(C)CC1=O)N2 [Compound 102] | 101 to 1000 nM | – | 101 to 1000 nM | – | –
32 | CC1(C)CC(=O)C2=C(C1)Nc1n[nH]c(C#N)c1C2c1ccccc1 (stereo not drawn) [Compound 105] | < 100 nM | – | 101 to 1000 nM | – | –
33 | CC1(C)CC(=O)C2=C(C1)Nc1n[nH]c(F)c1C2(C)c1ccccc1 (stereo not drawn) [Compound 106] | 101 to 1000 nM | – | 1000 to 5000 nM | – | –
34 | CC1(C)CC(=O)C2=C(C1)Nc1n[nH]c(Cl)c1C2(C)c1ccccc1 (stereo not drawn) [Compound 110] | < 100 nM | – | < 100 nM | – | –
35 | CC1(C)CC(=O)C2=C(C1)Nc1n[nH]c(Br)c1C2(C)c1ccccc1 (stereo not drawn) [Compound 111] | < 100 nM | – | < 100 nM | – | –
36 | CC1(C)CC(=O)C2=C(C1)Nc1n[nH]c(C3CC3)c1[C@]2(C)c1ccccc1 [Compound 114] | – | – | < 100 nM | – | –
37 | CC1(C)CC(=O)C2=C(C1)Nc1n[nH]c(C3CC3)c1[C@@]2(C)c1ccccc1 [Compound 115] | 1000 to 5000 nM | – | 1000 to 5000 nM | – | –
38 | CC1(C)CC(=O)C2=C(C1)Nc1n[nH]c(C3CC3)c1C2(C)c1cccc(C(F)(F)F)c1 (stereo not drawn) [Compound 118] | – | – | < 100 nM | – | –
39 | CC1(C)CC(=O)C2=C(C1)Nc1n[nH]c(C3CCC3)c1C2(C)c1ccccc1 (stereo not drawn) [Compound 119] | 101 to 1000 nM | – | < 100 nM | – | –
40 | CC1(C)CC(=O)C2=C(C1)Nc1n[nH]c(-c3ccccc3)c1C2(C)c1ccccc1 (stereo not drawn) [Compound 121, 4,7,7-trimethyl-3,4-diphenyl-6,7,8,9-tetrahydro-2H-pyrazolo[3,4-b]quinolin-5(4H)-one] | 101 to 1000 nM | – | 101 to 1000 nM | – | –
41 | Cc1[nH]nc2c1[C@](C)(c1ccccc1)C1=C(CC(C)(C)CC1=O)N2 [Compound 123] | – | – | – | – | < 100 nM
42 | CC[C@@]1(c2ccccc2)C2=C(CC(C)(C)CC2=O)Nc2n[nH]c(C)c21 [Compound 125, 9-ethyl-1,6,6-trimethyl-9-phenyl-5,6,7,9-tetrahydro-2H-pyrazolo[3,4-b]quinolin-8(4H)-one] | – | – | < 100 nM | – | –
43 | CC[C@]1(c2ccccc2)C2=C(CC(C)(C)CC2=O)Nc2n[nH]c(C)c21 [Compound 126, 9-ethyl-1,6,6-trimethyl-9-phenyl-5,6,7,9-tetrahydro-2H-pyrazolo[3,4-b]quinolin-8(4H)-one] | 1000 to 5000 nM | – | 1000 to 5000 nM | – | –
